Reference: the NIST ThermoML archive (doi:10.1016/j.fluid.2018.10.006)
Numbers after ± are expanded uncertainties.

Details: 508.92 K, Fluid (supercritical or subcritical phases), Coaxial cylinder method

CCCCCC [hexane]
Details | thermal conductivity [W/m/K]
3088 kPa | 0.1061 ± 0.0049
3089 kPa | 0.1087 ± 0.005
3090 kPa | 0.1096 ± 0.0051
3091 kPa | 0.11 ± 0.0051
3092 kPa | 0.1093 ± 0.005
3093 kPa | 0.1071 ± 0.0049
3094 kPa | 0.1049 ± 0.0048
3095 kPa | 0.1028 ± 0.0047
3096 kPa | 0.101 ± 0.0047
3097 kPa | 0.09872 ± 0.0046
3098 kPa | 0.0967 ± 0.0044
3099 kPa | 0.0947 ± 0.0044
3100 kPa | 0.09356 ± 0.0043
3101 kPa | 0.09223 ± 0.0043
3102 kPa | 0.09134 ± 0.0042
3103 kPa | 0.09045 ± 0.0042
3104 kPa | 0.08916 ± 0.0041
3105 kPa | 0.08837 ± 0.0041
3106 kPa | 0.08751 ± 0.004
3107 kPa | 0.08708 ± 0.004
3108 kPa | 0.08666 ± 0.004
3109 kPa | 0.08604 ± 0.004
3110 kPa | 0.08542 ± 0.0039
3111 kPa | 0.08502 ± 0.0039
3112 kPa | 0.08462 ± 0.0039
3113 kPa | 0.08398 ± 0.0039
3114 kPa | 0.08318 ± 0.0038
3115 kPa | 0.08318 ± 0.0038
3120 kPa | 0.08124 ± 0.0038
3125 kPa | 0.07976 ± 0.0037
3130 kPa | 0.07868 ± 0.0037
3135 kPa | 0.07761 ± 0.0037
3140 kPa | 0.07664 ± 0.0036
3145 kPa | 0.07595 ± 0.0036
3150 kPa | 0.07561 ± 0.0035
3155 kPa | 0.07461 ± 0.0035
3159 kPa | 0.07461 ± 0.0035
3160 kPa | 0.07429 ± 0.0035
3165 kPa | 0.07396 ± 0.0034
3170 kPa | 0.07364 ± 0.0034
3175 kPa | 0.07309 ± 0.0034
3180 kPa | 0.07309 ± 0.0034
3185 kPa | 0.07278 ± 0.0034
3190 kPa | 0.07248 ± 0.0034
3195 kPa | 0.07217 ± 0.0034
3200 kPa | 0.07227 ± 0.0034
3205 kPa | 0.07189 ± 0.0034
3215 kPa | 0.07157 ± 0.0033
3220 kPa | 0.07128 ± 0.0033
3225 kPa | 0.07128 ± 0.0033
3230 kPa | 0.07107 ± 0.0033
3235 kPa | 0.07101 ± 0.0033
3240 kPa | 0.07092 ± 0.0033
3245 kPa | 0.07081 ± 0.0033
3250 kPa | 0.07098 ± 0.0033
3255 kPa | 0.07098 ± 0.0033
3260 kPa | 0.07098 ± 0.0033
3265 kPa | 0.07069 ± 0.0033
3270 kPa | 0.07069 ± 0.0033
3275 kPa | 0.07069 ± 0.0033
3280 kPa | 0.07069 ± 0.0033
3285 kPa | 0.07069 ± 0.0033
3290 kPa | 0.0704 ± 0.0033
3295 kPa | 0.0704 ± 0.0033
3300 kPa | 0.0704 ± 0.0033
3310 kPa | 0.0704 ± 0.0033
3320 kPa | 0.07069 ± 0.0033
3330 kPa | 0.07069 ± 0.0033
3340 kPa | 0.07069 ± 0.0033
3350 kPa | 0.0707 ± 0.0033
3355 kPa | 0.07041 ± 0.0033
3360 kPa | 0.07041 ± 0.0033
3365 kPa | 0.07041 ± 0.0033
3370 kPa | 0.07041 ± 0.0033
3375 kPa | 0.07041 ± 0.0033
3380 kPa | 0.07041 ± 0.0033
3385 kPa | 0.07041 ± 0.0033
3390 kPa | 0.07013 ± 0.0033
3395 kPa | 0.07013 ± 0.0033
3500 kPa | 0.07013 ± 0.0033
3535 kPa | 0.07013 ± 0.0033
3540 kPa | 0.07013 ± 0.0033
